Data as given in publication PMC6835510, “Magnificamide, a β-Defensin-Like Peptide from the Mucus of the Sea Anemone Heteractis magnifica, Is a Strong Inhibitor of Mammalian α-Amylases” (Marine Drugs, 2019).
Bridge positions count the residues as written; N and C are the ends. Ends that are not written are not given here.

Experiments:
[1] = molecular target: T1, porcine pancreatic α-amylase (PPA) (Sus scrofa, UniProt P00690); experiment: PPA inhibitory activity of RP-HPLC fractions; format: biochemical; settings: 10 µL sample, PPA 1 µg/mL, 50 mM sodium phosphate, 100 mM NaCl, pH 7.0, 10 min RT, CNPG3 1 mM, 405 nm
T1 construct: purchased Sigma Aldrich A4268
T1 sequence (P00690 16-511): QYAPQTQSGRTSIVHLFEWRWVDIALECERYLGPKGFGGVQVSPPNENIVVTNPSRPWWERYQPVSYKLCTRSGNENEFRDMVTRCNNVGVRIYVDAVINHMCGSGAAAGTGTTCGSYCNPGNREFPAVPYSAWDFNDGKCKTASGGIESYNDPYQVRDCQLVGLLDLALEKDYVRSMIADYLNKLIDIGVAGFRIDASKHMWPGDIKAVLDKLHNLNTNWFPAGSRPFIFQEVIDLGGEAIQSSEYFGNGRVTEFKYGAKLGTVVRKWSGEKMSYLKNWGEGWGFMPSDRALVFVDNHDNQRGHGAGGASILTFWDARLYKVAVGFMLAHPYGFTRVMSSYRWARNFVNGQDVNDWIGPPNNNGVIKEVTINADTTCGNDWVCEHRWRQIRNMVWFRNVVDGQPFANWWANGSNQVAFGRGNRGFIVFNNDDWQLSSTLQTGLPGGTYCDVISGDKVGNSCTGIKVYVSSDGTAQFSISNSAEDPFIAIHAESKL
Method: The porcine α-amylase (PPA) inhibitory activity of the peptide fractions obtained by RP-HPLC was tested by the following procedure. Experimental samples (10 µL) were added to 80 µL of 50 mM sodium phosphate, 100 mM sodium chloride buffer (pH 7.0), and PPA (A4268) (1 µg/mL) (Sigma Aldrich, St. Louis, MO, USA), and incubated for 10 min at RT. The substrate solution, 2-chloro-4-nitrophenyl α-D-maltotrioside (CNPG3) (Sigma Aldrich, St. Louis, MO, USA), was added to the reaction mixture (1 mM) and incubated for 10 min at RT. The optical absorption was measured on an xMark microplate spectrophotometer (BioRad, Hercules, CA, USA) at 405 nm.

[2] = test system: BgNav1; experiment: Two-electrode voltage-clamp; format: cell-based, Blattella germanica; settings: 10 µM; insect channel; Xenopus laevis oocytes; 18–22 °C
From the text: For the expression of Nav channels (mammalian rNav1.2, rNav1.4, hNav1.5, mNav1.6 and hNav1.8 channels; the insect channel BgNav1 from Blattella germanica; and the auxiliary subunits rβ1, hβ1, and TipE) and Kv channels (mammalian rKv1.1, rKv1.2, hKv1.3, rKv1.4, rKv1.5, rKv1.6, rKv2.1, hKv3.1, rKv4.2, hKv10.1, and hERG; and Drosophila Shaker’s IR) in Xenopus laevis oocytes; the linearized plasmids were transcribed using the T7 or SP6 mMESSAGE-mMACHINE transcription kit (Ambion, Carlsbad, CA, USA). The harvesting of stage V–VI oocytes from anesthetized female Xenopus laevis frog was previously described. Oocytes were injected with 50 nL of cRNA at a concentration of 1 ng/nL using a microinjector (Drummond Scientific, Broomall, PA, USA). The oocytes were incubated in a solution containing 96-mM NaCl, 2-mM KCl, 1.8-mM CaCl2, 2-mM MgCl2, and 5-mM HEPES (pH 7.4), supplemented with 50 mg/L gentamycin sulfate.
Two-electrode voltage-clamp recordings were performed at room temperature (18–22 °C) using a Geneclamp 500 amplifier (Molecular Devices, Downingtown, PA, USA) controlled by a pClamp data acquisition system (Axon Instruments, Union City, CA, USA). Whole cell currents from oocytes were recorded 1–4 days after injection. […] All data were analyzed using pClamp Clampfit 10.0 (Molecular Devices, Downingtown, PA, USA) and Origin 7.5 software (Originlab, Northampton, MA, USA).

**Q.** Which results are given for “SEGTSCYIYHGVYGICKAKCAEDMKAMAGMGVCEGDLCCYKTPW (disulfide 6-38, 16-33, 20-39) [r-magnificamide]”?
**A.** PPA inhibition by RP-HPLC fraction [1]: inhibited PPA; Channel modulating activity, BgNav1 [2]: Not active
